Results: publication PMC7734590, “Identification of a Selective RelA Inhibitor Based on DSE-FRET Screening Methods” (International Journal of Molecular Sciences, 2020)
Like-named read-outs stand apart in the source and are kept apart here.

Assays:
p50 = target: T1, p50 (Homo sapiens, UniProt P19838); experiment: DSE-FRET p50–DNA binding inhibition; type: biochemical
T1 sequence (P19838 1-433 limits assumed): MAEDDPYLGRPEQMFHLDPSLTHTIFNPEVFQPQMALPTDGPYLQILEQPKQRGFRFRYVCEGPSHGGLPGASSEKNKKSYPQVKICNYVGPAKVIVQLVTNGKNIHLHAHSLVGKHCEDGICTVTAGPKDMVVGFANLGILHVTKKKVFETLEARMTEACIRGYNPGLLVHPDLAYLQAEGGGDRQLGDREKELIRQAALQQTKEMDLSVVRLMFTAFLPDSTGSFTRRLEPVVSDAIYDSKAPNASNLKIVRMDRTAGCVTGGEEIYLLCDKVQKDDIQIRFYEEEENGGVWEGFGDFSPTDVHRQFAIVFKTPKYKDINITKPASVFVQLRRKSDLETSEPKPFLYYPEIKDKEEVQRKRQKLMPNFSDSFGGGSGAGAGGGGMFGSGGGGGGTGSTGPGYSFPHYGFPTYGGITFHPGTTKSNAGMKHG

p52 [1] = target: T2, p52 (Homo sapiens, UniProt Q00653); experiment: EMSA with recombinant p52; type: biochemical
T2 sequence (Q00653 1-454 limits assumed): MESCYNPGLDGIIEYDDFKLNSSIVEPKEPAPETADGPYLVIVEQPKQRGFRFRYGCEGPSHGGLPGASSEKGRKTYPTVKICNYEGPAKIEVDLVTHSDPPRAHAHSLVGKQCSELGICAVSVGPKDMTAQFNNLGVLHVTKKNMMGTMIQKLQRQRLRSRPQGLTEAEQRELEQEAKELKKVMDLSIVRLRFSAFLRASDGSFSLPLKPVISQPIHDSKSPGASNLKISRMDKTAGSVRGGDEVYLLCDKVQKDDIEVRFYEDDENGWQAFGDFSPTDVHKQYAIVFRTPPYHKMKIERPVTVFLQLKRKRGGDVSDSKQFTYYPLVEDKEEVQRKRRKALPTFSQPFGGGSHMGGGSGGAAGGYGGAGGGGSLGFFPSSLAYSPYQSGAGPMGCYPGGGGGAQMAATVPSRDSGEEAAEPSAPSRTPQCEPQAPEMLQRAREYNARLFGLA

p52 [2] = target: T2, p52; experiment: DSE-FRET p52–DNA binding inhibition; type: biochemical
RelA [3] = target: T3, RelA (Homo sapiens, UniProt Q04206); experiment: EMSA with recombinant RelA; type: biochemical
PK8 cells = experiment: Cell viability assay (PrestoBlue), TNF-α-treated PK8 cells; type: cell-based, human; details: TNF-α 50 ng/mL, 48 h
Description: The human pancreatic carcinoma cell line PK8 was grown in Roswell Park Memorial Institute 1640 Medium (RPMI) (SIGMA; R8758) supplemented with 10% fetal bovine serum (FBS) at 37 °C with 5% CO2.
Cell viability was measured using the PrestoBlue assay according to the standard protocol (Thermo Fisher Scientific, Waltham, MA, USA: A13261). PK8 cells were cultivated on 96-well plates. After a 48 h treatment with TNF-α (50 ng/mL) in the presence or absence of A55, the culture medium was replaced with fresh medium containing 10% PrestoBlue and incubated for an additional 1 h at 37 °C and 5% CO2. Fluorescence intensity was then measured using a multiplate reader (EnSpire, PerkinElmer, Waltham, MA, USA).

RelA [4] = target: T3, RelA; experiment: DSE-FRET RelA–DNA binding inhibition; type: biochemical
cRel = target: T4, cRel (Homo sapiens, UniProt Q04864); experiment: DSE-FRET cRel–DNA binding inhibition; type: biochemical
T4 construct: GST; made in house
T4 sequence (Q04864 1-619): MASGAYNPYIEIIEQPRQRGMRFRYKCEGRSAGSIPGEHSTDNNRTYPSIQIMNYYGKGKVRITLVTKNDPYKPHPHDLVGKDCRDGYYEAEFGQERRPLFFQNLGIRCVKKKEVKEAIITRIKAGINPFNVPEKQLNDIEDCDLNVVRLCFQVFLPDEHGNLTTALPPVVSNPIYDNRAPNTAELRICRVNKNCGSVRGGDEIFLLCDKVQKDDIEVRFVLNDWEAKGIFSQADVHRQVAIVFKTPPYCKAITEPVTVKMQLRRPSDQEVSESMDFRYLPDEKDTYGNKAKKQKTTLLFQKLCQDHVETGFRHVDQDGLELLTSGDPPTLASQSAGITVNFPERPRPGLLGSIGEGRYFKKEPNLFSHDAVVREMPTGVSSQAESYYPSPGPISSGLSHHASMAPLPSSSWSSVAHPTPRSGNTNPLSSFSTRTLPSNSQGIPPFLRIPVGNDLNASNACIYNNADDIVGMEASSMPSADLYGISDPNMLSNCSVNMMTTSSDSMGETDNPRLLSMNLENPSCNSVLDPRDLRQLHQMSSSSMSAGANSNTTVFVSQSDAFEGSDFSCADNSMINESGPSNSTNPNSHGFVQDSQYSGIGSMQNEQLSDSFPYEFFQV

GST–p52 = target: T5, GST–p52 (Homo sapiens, UniProt Q00653); experiment: SPR analysis with immobilized GST–p52; type: binding
T5 sequence (Q00653 1-454 limits assumed): T2 sequence (Q00653 1-454 limits assumed)
Description: (§1) SPR biosensor measurements were performed at 25 °C using a Biacore T100 instrument (GE Healthcare, Chicago, IL, USA). […] Next, 4 µg/mL GST–RelA or 5 µg/mL GST (GE Healthcare) was flowed through the channel (5 μL/min, for 180 s) and captured on the sensor chip. […] Dissociation constants were computed by fitting to a 1:1 interaction model using Biacore (GE Healthcare). Stoichiometry was calculated based on the theoretical Rmax value, where the theoretical Rmax = MWA/MWL RL SM (A, analyte; L, ligand; RL, immobilization level of ligand RU; SM, stoichiometry).

GST–RelA = GST–RelA (Homo sapiens, UniProt Q04206); experiment: SPR analysis with immobilized GST–RelA; type: binding; details: for Rmax / Kd: GST–RelA; for Kd: read-out: dissociation constant (Kd)
Description: as §1

T3 sequence (Q04206 19-306 limits assumed): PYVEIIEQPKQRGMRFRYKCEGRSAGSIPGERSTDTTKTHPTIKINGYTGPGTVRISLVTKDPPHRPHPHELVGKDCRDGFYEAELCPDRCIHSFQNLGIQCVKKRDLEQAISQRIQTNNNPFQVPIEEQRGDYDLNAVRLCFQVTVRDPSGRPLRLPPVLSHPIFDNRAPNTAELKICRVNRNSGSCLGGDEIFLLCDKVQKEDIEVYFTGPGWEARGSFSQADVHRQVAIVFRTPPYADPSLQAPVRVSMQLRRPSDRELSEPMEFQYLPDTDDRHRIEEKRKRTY
Sequence of GST–RelA (Q04206 19-306 limits assumed): as above

IC50 (p50): > 100 µM
p52–DNA binding inhibition at 50 µM (p52 [2]; 96-well plates, 50 µM): inhibited only RelA–DNA binding
inhibition at 50 µM (p52 [2]; 96 well plate, 50 µM, 120 min-0 min, read-out: Kinetic assay @ 50 µM p52 Inhibition % ΔRFU(120 min-0 min)): 6.66%
IC50 (p52 [2]; DSE-FRET): > 100 µM
Hit Judgement of: RelA (RelA [4]; 2nd screening at 96 well plate, 1 = judged hit): 1
ligand efficiency (LE) (RelA [4]; 16 heavy atoms): 0.44
RelA–DNA binding inhibition (RelA [4]; 96-well plate, in silico selected compounds): over 50%
RelA–DNA binding inhibition at 50 µM (RelA [4]; 96-well plates, 50 µM): inhibited only RelA–DNA binding
inhibition at 50 µM (RelA [4]; 96 well plate, 50 µM, 120 min-0 min, read-out: Kinetic assay @ 50 µM RelA Inhibition % ΔRFU(120 min-0 min)): 63%
IC50 (RelA [4]; DSE-FRET): 9.31 µM
IC50 (cRel): > 100 µM
Kd (GST–p52): 1.27 µM
Rmax (GST–p52; GST–p52, 3.125–100 µM A55): 11.4 RU
Rmax GST-p52 (GST–p52; Run 1, 100 uM - […], theoretical Rmax 3.4): 11.4 RU
Rmax (GST–RelA; 0.625–20 µM A55): 7.3 RU
Kd (GST–RelA; 0.625–20 µM A55): 2.87 µM
Rmax (GST–RelA; 3.125–100 µM A55): 4.7 RU
Kd (GST–RelA; 3.125–100 µM A55): 13 µM
Rmax GST-RelA (GST–RelA; Run 1, 100 uM - […], theoretical Rmax 4.5): 4.7 RU
Rmax GST-RelA (GST–RelA; Run 2, 20 uM - […], theoretical Rmax 5.0): 7.3 RU
SMILES: Cc1cc(O)n(CC(=O)O)c(=O)c1C(N)=O [A55, 2-(3-carbamoyl-6-hydroxy-4-methyl-2-oxopyridin-1(2H)-yl) acetic acid]
EMSA inhibition of p52–DNA binding (p52 [1]): selectively inhibited the RelA–DNA binding
EMSA inhibition of RelA–DNA binding (RelA [3]): selectively inhibited the RelA–DNA binding
cell proliferation / growth inhibition (PK8 cells): enhanced the growth inhibition of TNF-α-treated PK8 cells in a dose-dependent manner
dose–response of RelA–DNA binding inhibition (RelA [4]; 2–10 µM): inhibited RelA–DNA binding in a concentration-dependent manner
